Source: patent US20130303500A1, “COMPOUNDS AND METHODS FOR TREATING NEOPLASIA” (Medexis S.A., priority 2010, published 2013)

Legend:
[1] = target: Na+/K+-ATPase (Adenosine 5′-Triphosphatase isolated from porcine cerebral cortex); experiment: Na+/K+-ATPase inhibitory activity, colorimetric Adenosine 5′-Triphosphatase Enzymatic Assay (Sigma); type: biochemical; settings: enzyme from porcine cerebral cortex, 0.5 units/ml
Description: The compound inhibitory effect on ATPase activity was assessed in vitro using the colorimetric Adenosine 5′-Triphosphatase Enzymatic Assay of Sigma (St. Louis, Mo.) according to the manufacturer's instructions. This assay utilizes Adenosine 5′-Triphosphatase isolated from porcine cerebral cortex. Each reaction was performed in a final volume of […] using 0.5 units/ml enzyme in the presence of the different inhibitors. […] IC50 values were determined using the Origin® program software (OriginLab, Northampton, Mass.).

[2] = tested on: A549 (Lung) cells; experiment: Sulforhodamine B (SRB) assay, A549; type: cell-based; settings: Homo sapiens; for CC50: A549, 48 h, read-out: LC50; for GI50 / IC (TGI): A549 Lung, SRB, 48 h
Description: (§1) Sulforhodamine B (SRB) assays were performed according to standard National Cancer Institute Guidelines. Briefly, human tumor cells from different cancer panels were seeded into 96 well plates in […] (plating densities ranging from 5-40,000 cells/well depending on the doubling time of individual cell lines) in serum-containing media for twenty-four hours prior to the addition of the compounds to be assayed. After 24 hours, one plate of each cell line was fixed in situ with trichloroacetic acid (TCA). The fixed slides were used to determine the cell population for each cell line at the time of drug addition (Tz). Each compound to be tested was solubilized in dimethyl sulfoxide (DMSO) and the desired concentration was then added to the medium and diluted serially 1:10 to provide a total of five or ten drug concentrations plus control (in a final volume of 200 μL). The starting dose before any dilution was 100 uM for all compounds.
(§2) Following drug addition, each culture was incubated for forty-eight hours. The assay was terminated with the addition of cold TCA. The supernatant was discarded, and the plates were washed with tap water and air dried. SRB solution was then added to each well. After staining, the bound stain was solubilized and the absorbance was read on an automated plate reader at a wavelength of 515 nm.
(§3) Using the absorbance measurements [time zero, (Tz), control growth, (C), and test growth in the presence of drug at the ten concentration levels (Ti)], the percentage growth was calculated at each of the drug concentrations levels. Percentage growth inhibition was calculated as:
(§4) [(Ti−Tz)/(C−Tz)]×100 for concentrations for which Ti>/=Tz
(§5) [(Ti−Tz)/Tz]×100 for concentrations for which Ti<Tz.
(§6) Three dose response parameters were calculated for each experimental agent. Growth inhibition of 50% (GI50) was calculated from [(Ti−Tz)/(C−Tz)]×100=50, which was the drug concentration resulting in a 50% reduction in the net protein increase (as measured by SRB staining) in control cells during the drug. The drug concentration resulting in total growth inhibition (TGI) was calculated from Ti=Tz. The LC50 (concentration of drug resulting in a 50% reduction in the measured protein at the end of the drug treatment as compared to that at the beginning) indicating a net loss of cells following treatment was calculated from [(Ti−Tz)/Tz]×100=−50.
(§7) Values were calculated for each of these three parameters when the level of activity was reached; however, if the effect was not reached or was exceeded, the value for that parameter was expressed as greater or less than the maximum or minimum concentration tested.

[3] = tested on: PC3 (Prostate) cells; experiment: Sulforhodamine B (SRB) assay, PC3; type: cell-based; settings: Homo sapiens, Prostate cell, 48 h; for CC50: read-out: LC50; for GI50 / IC (TGI): PC3 Prostate, SRB
Description: as §1, §2, §3, §4, §5, §6, §7

[4] = tested on: SF268 (CNS) cells; experiment: Sulforhodamine B (SRB) assay, SF268; type: cell-based; settings: Homo sapiens; for CC50: SF-268, 48 h, read-out: LC50; for GI50 / IC (TGI): SF-268, SF268 CNS, SRB, 48 h
Description: as §1, §2, §3, §4, §5, §6, §7

[5] = tested on: DU145 (Prostate) cells; experiment: MTT cell proliferation/viability assay, DU145; type: cell-based; settings: Homo sapiens, DU-145, 72 h
Description: (§8) Cell proliferation/viability was assessed by the MTT [3-(4,5-dimethylthiazol-2-yl)-2,5-diphenyltetrazolium bromide] assay, which is commercially available (Sigma, St. Louis, Mo.). Cells were cultured in 96-well plates for twenty-four hours (7-10.000 cells/well) and incubated with various concentrations of the different compounds—as indicated in the Figures—in serum-containing medium (or left untreated) for seventy-two hours. At the end of incubation, the medium was aspirated and MTT dissolved in RPMI 1640 w/o phenol red was added to each well to a final concentration of 0.25 mg/ml. After four hours incubation in the dark (37° C., 5% CO2) the supernatant was discarded. The converted dye (blue formazan crystals) was solubilized by adding 200 μl dimethylsulfoxide to each well. Absorbance was measured at 550 nm with reference at 655 nm using a spectrophotometer with the respective filters. All assays were performed in triplicate.
(§9) The effect of the different compounds on the proliferation and viability of two cancer cell lines (DU145/prostate and CAKI/renal) was tested through quantitative (4,5-dimethylthiazol-2-yl)-2,5-diphenyltetrazolium bromide (MTT) assays.

[6] = tested on: CAKI (Renal) cells; experiment: MTT cell proliferation/viability assay, CAKI; type: cell-based; settings: 72 h
Description: as §8, §9

[7] = tested on: 7 different cell lines (lung, ovarian, prostate, CNS, breast, colon); experiment: SRB assays across 7 cell lines; type: cell-based, human; settings: for viability and/or cell proliferation of cell lines: cell lines representative of lung, breast, CNS, prostate, ovarian, colon and renal neoplasias
Description: as §1, §2, §3, §4, §5, §6, §7
SRB provides a colorimetric measure of a compound's anti-cancer activity. SRB assays were performed with compounds of the invention in 7 different cell lines, which represent six different tumor panels (lung, ovarian, prostate, CNS, breast, colon).

Row | Compound | IC50 [1] [µM] | CC50 [2] [µM] | GI50 [2] [µM] | IC (TGI) [2] [µM] | CC50 [3] [µM] | GI50 [3] [µM] | IC (TGI) [3] [µM] | CC50 [4] [µM] | GI50 [4] [µM] | IC (TGI) [4] [µM] | IC50 [5] [µM] | IC50 [6] [µM] | GI50 action in most cell lines ([7]; SRB, most cell lines) | viability and/or cell proliferation of cell lines [7] | GI50 ([7]; Homo sapiens, SRB, average over cell lines) [µM]
1 | CC(=O)OC[C@]12CCC(=NO[C@@H]3CCNC3)C[C@@H]1CCC1C2CC[C@]2(C)C(=O)CCC12 (stereo partly drawn) [Compound 48, ((5S,10R,13S)-13-methyl-17-oxo-3-((R)-pyrrolidin-3-yloxyimino)-hexadecahydro-1H-cyclopenta[a]phenanthren-10-yl)methyl acetate] | 2.88 | 102 | 6.31 | 38300 | > 100 | 8.77 | > 100 | 101 | 11.5 | 56400 | 11.6 | 41.3 | single-digit micromolar | reduced the viability and/or cell proliferation | –
2 | C[C@]12CCC(=NOC3CCNC3)CC1C(=O)CC1C2CC[C@]2(C)C(=O)C(F)CC12 (stereo partly drawn) [Compound 4, (10R,13S,16R)-16a-fluoro-10,13-dimethyl-3-((S)-pyrrolidin-3-yloxyimino)-tetradecahydro-14H-cyclopenta[a]phenanthrene-6,17-dione] | 0.194 | 1.01 | 0.43 | 0.723 | 8.04 | 0.731 | 3.24 | 6.98 | 0.277 | 0.782 | 2.7 | 5 | – | reduced the viability and/or cell proliferation | < 1
